What was measured:
[1] = system: RKO, RKO E6, H1299 and MEF's; assay: cell cycle analysis by propidium iodide flow cytometry; type: cell-based; conditions: two days incubation
Method: RKO, RKO E6, H1299 and MEF's were seeded and treated with designated concentration of MEL23. After two days incubation, cells were harvested and fixed in ethanol, followed by staining in a solution of 7.3 μM RNaseA and 98.7 μM propidium iodide (Sigma, St. Louis, Mo.). The samples were read on a FACS Calibur flow cytometer (BD Biosciences, San Jose, Calif.) and analyzed with CeliQuest software (BD Biosciences).

[2] = system: Mdm2-ubiquitin conjugates; assay: cell-based Mdm2 ubiquitination assay (HA-ubiquitin immunoprecipitation); parameters: species or system human; conditions: Mdm2-luciferase cells, with 10 μM MG132
Method: To obtain the results shown in FIG. 4A, Mdm2-luciferase cells were transfected with ubiquitin-HA and treated 8 hours later with 10 μg/ml (28 μM) MEL23, 10 μg/ml (31 μM) MEL24, or a DMSO control. After 16 hours, cells were additionally treated with 10 μM MG132 or a DMSO control. After 3 hours, cells were lysed and immunoprecipitated for 3 hours with anti-HA affinity matrix. Total lysates and immunoprecipitated samples were analyzed by Western blotting using anti-Mdm2 antibody. NT indicates a no treatment control. […] After 8 hours, cells were treated with 10 μg/ml (28 μM) MEL23, 10 μg/ml (31 μM) MEL24, or a DMSO control. After 16 hours, cells were additionally treated with 10 μM MG132 or a DMSO control. After 3 hours cells were lysed and analyzed by Western blotting using anti-p53 antibody. […]
The Mdm2-luciferase cell line was transfected with HA-ubiquitin and pre-treated with 10 μg/ml MEL23 or MEL24, followed by 10 μM MG132. […] Cells lysates were immunoprecipitated with an anti-HA antibody and analyzed by Western blotting. […]
Briefly, Mdm2-luciferase cells were transfected with HA-ubiquitin. […] Input lysates and immunoprecipitated samples were analyzed by Western blotting using anti-Mdm2 antibody.
Briefly, Mdm2-luciferase cells were transfected with HA-ubiquitin. […] Input lysates and immunoprecipitated samples were analyzed by Western blotting using anti-Mdm2 antibody. […]

MdmX = assay: etoposide-induced MdmX degradation in MCF7 cells (Western blot); type: cell-based, human; conditions: etoposide 30 μg/ml, 16 hours
Method: Cells were plated in 384-well format and treated with MG132 (2 hours) or cycloheximide (30 minutes). Steadylite luminescence buffer (PerkinElmer) was added and the relative luminescence levels determined on a Victor3 Plate Reader. Each graph represents the median of 5 replicates normalized to a no treatment control, and one standard deviation is shown. […] The graphs and EC50 values were determined using Graphpad PRISM®. […] U2OS, RKO, and HCT116 cells (p53 wild-type) were incubated with 5 μg/ml (14 μM) of MEL23, 5 μg/ml (15 μM) of MEL24, or 10 μM of MG132 for 6 hours. Cells were lysed and analyzed by Western blotting using anti-Mdm2, anti-p53, and anti-eIF4E antibodies. NT indicates a no treatment control. […] MCF7 cells (p53 wild-type) were incubated with 30 μg/ml (51 μM) etoposide alone or in combination with 50 μM AlIn or 5 μg/ml (14 μM) MEL23, or 5 μg/ml (15 μM) MEL24 for 16 hours. Cells were lysed and analyzed by Western blotting using anti-MDMX and anti-actin antibodies.
Cells were seeded and treated with the indicated compound(s). Cells were lysed after each time point in a buffer of 50 mM TrisHCl pH 7.5, 200 mM NaCl, 0.5% NP-40, and 1 complete mini EDTA-free protease inhibitor cocktail tablet per 10 mL of buffer (Roche, Cat. No. 8360170). Protein content was quantified using a Biorad protein assay reagent (Bio-Rad Laboratories, Hercules, Calif., Cat. No. 500-0006). SDS sample buffer was added to the samples, and the mixture was boiled for 5 minutes. Equal amounts of protein were resolved on a 1D SDS-PAGE gel. Following separation proteins were transferred to nitrocellulose membrane, blocked with 5% milk, and then incubated with primary antibody overnight at 4° C. The membrane was incubated with secondary-HRP antibody for 45 minutes at room temperature and developed with SuperSignal West Pico Substrate (Pierce, Rockford, Ill., Cat. No. 34080).

Row | SMILES | cell cycle [1] | Mdm2 ubiquitination in cells (Mdm2-ubiquitin conjugates) [2] | etoposide-induced MdmX degradation (MdmX)
1 | CCCCn1c(=O)[nH]c(O)c(C2NCCc3c2[nH]c2ccccc32)c1=O (stereo not drawn) [MEL23] | causes G2 cell cycle arrest | significantly less Mdm2-ubiquitin conjugates were immunoprecipitated | degradation could be prevented
2 | Cn1c(O)c(C2NCCc3c2[nH]c2ccccc32)c(=O)n(C)c1=O (stereo not drawn) [MEL24] | promotes G2 cell cycle arrest | significantly less Mdm2-ubiquitin conjugates were immunoprecipitated | degradation could be prevented
